Assay: Log P by HPLC on reversed phase columns (EEC directive 79/831 Annex V.A8; methods [a], [b], [c])
Type: physicochemical
Conditions: not given
Procedure, shortened: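 Log P derived from retention times, interpolated linearly between bracketing straight-chain alkan-2-ones (3–16 carbons) of known Log P. Eluents ran acetonitrile 10% to 95% against water with 0.1% formic acid ([a], acidic), 0.001 M ammonium acetate ([b], neutral) or 0.1% phosphoric acid ([c], acidic); UV read-out.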

Row | Compound | LogP
1 | CCCC(O)(Cn1cncc1C#N)c1ccc(F)cc1C(F)(F)F (stereo not drawn) [I-459] | 2.71^[a]
2 | N#Cc1cncn1CC(O)c1cnc(Oc2ccc(C(F)(F)F)nc2)cc1C(F)(F)F (stereo not drawn) [I-118] | 2.46^[a]
3 | OC(Cn1cncc1Br)c1ccc(Oc2ccc(Cl)cc2)cc1Cl (stereo not drawn) [I-14] | 2.60^[a]
4 | CC(C)(C)CC(C)(O)Cn1cncc1C#N (stereo not drawn) [I-239] | 1.92^[a]
5 | OC(Cn1cncc1Cl)c1ccc(Oc2ccc(Br)cn2)cc1Cl (stereo not drawn) [I-79] | 2.10^[a]
6 | COC(Cn1cncc1Cl)c1ccc(Oc2ccc(Cl)cc2)cc1C(F)F (stereo not drawn) [I-75] | 3.15^[a]
7 | OC(Cn1cncc1F)c1cnc(Oc2ccc(Cl)cc2F)cc1C(F)(F)F (stereo not drawn) [I-113] | 2.35^[a]
8 | CC(O)(Cn1cncc1Br)c1ccc(Oc2ccc(Br)cc2)cc1Cl (stereo not drawn) [1-174] | 2.96^[a]
9 | CC(O)(Cn1cncc1F)c1cnc(Oc2ccc(Br)cc2)cc1C(F)(F)F (single isomer, unassigned) [I-220] | 2.37^[a]
10 | N#Cc1cncn1CC(O)c1cnc(Oc2ccc(C(F)(F)F)cc2)cc1Cl (stereo not drawn) [I-127] | 2.96^[a]
11 | N#Cc1cncn1CC(O)(c1ccc(Cl)nc1Br)C1(F)CC1 (stereo not drawn) [I-556] | 1.99^[a]
12 | OC(Cn1cncc1C(F)(F)F)c1ccc(Oc2ccc(Cl)cc2)cc1Cl (stereo not drawn) [I-39] | 3.80^[a]
13 | CC(O)(Cn1cncc1Cl)c1cnc(Oc2ccc(Cl)cc2)cc1Br (stereo not drawn) [I-177] | 2.48^[a]
14 | COC(Cn1cncc1C#N)c1ccc(Oc2ccc(Br)cc2)cc1Br (stereo not drawn) [I-63] | 4.20^[a]
15 | COC(C)(Cn1cncc1Br)c1ccc(Oc2ccc(Br)cc2)cc1C(F)(F)F (stereo not drawn) [I-200] | 3.89^[a]
16 | O=C(Cn1cncc1F)c1ccc(Oc2ccc(Cl)cc2)nc1C(F)(F)F [IX-106] | 2.59^[a]
17 | C/C=C(\C)C(O)(Cn1cncc1C#N)c1ccc(F)cc1F (stereo not drawn) [I-396] | 2.41^[a]

Row | Compound | LogP
18 | CC(O)(Cn1cncc1C#N)c1ccc(Oc2ccc(C(F)(F)F)cc2)nc1C(F)(F)F (stereo not drawn) [I-312] | 3.25^[a]
19 | N#Cc1cncn1CC(O)c1cnc(Oc2ccc(C(F)(F)F)cc2)cc1C(F)(F)F (stereo not drawn) [I-111] | 3.15^[a]
20 | CCCC(O)(Cn1cncc1C#N)c1ccc(F)cc1 (stereo not drawn) [I-378] | 2.21^[a]
21 | CC(O)(Cn1cncc1C#N)c1ccc(Oc2ccc(C(F)(F)F)cc2)cc1C(F)(F)F (stereo not drawn) [I-206] | 3.64^[a]
22 | CC(O)(Cn1cncc1F)c1cnc(Oc2ccc(Br)cc2)cc1C(F)(F)F (single isomer, unassigned) [I-221] | 2.39^[a]
23 | CC(=O)c1cncn1CC(C)(O)c1ccc(Oc2ccc(Br)cc2)cc1Cl (stereo not drawn) [I-197] | 3.07^[a]
24 | OC(Cn1cncc1Cl)c1ccc(Oc2ccc(Cl)cc2)cc1F (stereo not drawn) [I-32] | 2.39^[a]
25 | CC(O)(Cn1cncc1F)c1ccc(Oc2ccc(Cl)cc2)cc1Cl (stereo not drawn) [I-194] | 2.34^[a]
26 | CC(O)(Cn1cncc1C#N)c1cnc(Oc2ccc(C(F)(F)F)cc2)cc1Cl (stereo not drawn) [I-254] | 3.21^[a]
27 | CC(C)(C)CC(O)(Cn1cncc1C#N)c1ccc(OC(F)(F)F)cc1 (stereo not drawn) [I-275] | 3.50^[a]
28 | CCCC(C)CCC(O)(Cn1cncc1C#N)C1(Cl)CC1 (stereo not drawn) [I-677] | 3.69^[a]
29 | O=C(Cn1cncc1F)c1ccc(Oc2ccc(C(F)(F)F)nc2)nc1C(F)(F)F [IX-130] | 2.16^[a]
30 | C[Si](C)(C)CC(O)(Cn1cncc1C#N)c1ccc(OC(F)(F)F)cc1 (stereo not drawn) [I-270] | 3.70^[a]
31 | OC(Cn1cncc1Cl)c1ccc(Oc2ccc(Cl)cc2)cc1 (stereo not drawn) [I-15] | 2.18^[a]
32 | COC(Cn1cncc1C#N)c1ccc(Oc2ccc(Cl)cc2)cc1C(F)F (stereo not drawn) [I-74] | 3.76^[a]
33 | N#Cc1cncn1CC(O)(CC1CC1)c1ccc(C(F)(F)F)cc1Br (stereo not drawn) [I-436] | 2.90^[a]

Results, then the compound that gave them:

Row | LogP | Compound
34 | 2.96^[a] | N#Cc1cncn1CC(O)(C#Cc1ccc(Cl)cc1)C1(Cl)CC1 (stereo not drawn) [I-322]
35 | 2.78^[a] | CCCC(O)(Cn1cncc1C#N)c1ccc(Cl)cc1F (stereo not drawn) [I-401]
36 | 2.97^[a] | CC(C)(C)C(O)(Cn1cncc1C#N)c1ccc(F)c(Br)c1 (stereo not drawn) [I-509]
37 | 2.28^[a] | N#Cc1cncn1CC(O)(CC1CC1)c1cc(Cl)cc(Cl)c1 (stereo not drawn) [I-503]
38 | 3.10^[a] | CCCCCC(O)(Cn1cncc1C#N)c1ccc(Cl)cc1 (stereo not drawn) [I-286]
39 | 3.04^[a] | C[Si](C)(C#CC(O)(Cn1cncc1C#N)C1(F)CC1)c1ccccc1 (stereo not drawn) [I-595]
40 | 3.13^[a] | CCCC(O)(Cn1cncc1C#N)c1ccc(Cl)cc1Br (stereo not drawn) [I-409]
41 | 2.21^[a] | N#Cc1cncn1CC(O)(c1cccc(Cl)c1F)C1(F)CC1 (stereo not drawn) [I-558]
42 | 2.86^[a] | N#Cc1cncn1CC(O)(CC1CC1)c1ccc(Cl)c(Br)c1 (stereo not drawn) [I-533]
43 | 2.80^[a] | N#Cc1cncn1CC(O)(c1cc(Cl)cc(Cl)c1Cl)C1(Cl)CC1 (stereo not drawn) [I-614]
44 | 2.67^[a] | N#Cc1cncn1CC(O)(c1cc(Cl)cc(Cl)c1)C1(F)CC1 (stereo not drawn) [I-472]
45 | 3.39^[a] | CC(C)(C)c1ccc(C#CC(O)(Cn2cncc2C#N)C2(F)CC2)cc1 (stereo not drawn) [I-372]
46 | 3.03^[a] | N#Cc1cncn1CC(O)(c1cc(Cl)c(Cl)c(Cl)c1)C1(F)CC1 (stereo not drawn) [I-534]
47 | 2.54^[a] | N#Cc1cncn1CC(O)(CC1CC1)c1cc(F)cc(Cl)c1 (stereo not drawn) [I-497]
48 | 2.66^[a] | CCC(O)(Cn1cncc1C#N)c1ccc(Cl)cc1Cl (stereo not drawn) [I-301]
49 | 2.32^[a] | N#Cc1cncn1CC(O)(c1cc(F)c(F)cc1Cl)C1(F)CC1 (stereo not drawn) [I-579]
50 | 3.19^[a] | CCCC(O)(Cn1cncc1C#N)c1ccc(Br)cc1Cl (stereo not drawn) [I-423]

Row | LogP | Compound
51 | 2.86^[a] | CCc1ccc(C(O)(Cn2cncc2C#N)C2(Cl)CC2)c(Cl)c1 (stereo not drawn) [I-353]
52 | 2.82^[a] | CC(C)CCCC(O)(Cn1cncc1C#N)C1(F)CC1 (stereo not drawn) [I-671]
53 | 2.78^[a] | N#Cc1cncn1CC(O)(c1ccc(Cl)cc1C(F)(F)F)C1CC1 (stereo not drawn) [I-464]
54 | 2.75^[a] | N#Cc1cncn1CC(O)(c1ccc(C(F)(F)F)cc1Cl)C1(F)CC1 (stereo not drawn) [I-383]
55 | 3.27^[a] | Cc1ccc(C(O)(Cn2cncc2C#N)C2(Cl)CC2)cc1C1(C(F)(F)F)CC1 (stereo not drawn) [I-212]
56 | 2.14^[a] | N#Cc1cncn1CC(O)(c1cc(F)cc(F)c1)C1(F)CC1 (stereo not drawn) [I-473]
57 | 2.66^[a] | Cc1cc(C(O)(Cn2cncc2C#N)C2(F)CC2)c(F)cc1Cl (stereo not drawn) [I-507]
58 | 2.08^[a] | N#Cc1cncn1CC(O)(C#CCC(Cl)CCl)C1(F)CC1 (stereo not drawn) [I-604]
59 | 2.82^[a] | N#Cc1cncn1CC(O)(c1cc(Cl)c(Cl)cc1Cl)C1(F)CC1 (stereo not drawn) [I-576]
60 | 2.37^[a] | N#Cc1cncn1CC(O)(c1ccc(F)c(F)c1F)C1(Cl)CC1 (stereo not drawn) [I-626]
61 | 2.39^[a] | N#Cc1cncn1CC(O)(c1ccc(F)c(Cl)c1)C1(F)CC1 (stereo not drawn) [I-444]
62 | 2.04^[a] | N#Cc1cncn1CC(O)(c1ccc(F)cc1)C1(F)CC1 (stereo not drawn) [I-351]
63 | 2.77^[a] | C[Si](C)(C)C=CC(O)(Cn1cncc1C#N)C1(F)CC1 (stereo not drawn) [I-679]
64 | 3.78^[a] | N#Cc1cncn1CC(O)(c1ccc(Oc2ccc(Cl)cc2)cc1Cl)C1(Cl)CC1 (stereo not drawn) [I-391]
65 | 3.19^[a] | N#Cc1cncn1CC(O)(c1ccc(Oc2ccccc2)cc1)C1(Cl)CC1 (stereo not drawn) [I-281]
66 | 1.94^[a] | N#Cc1cncn1CC(O)(c1c(F)cccc1F)C1(F)CC1 (stereo not drawn) [I-520]

Same assay, conditions: reversed phase HPLC column; method [a]: LC-UV, acidic range, 0.1% formic acid in water and acetonitrile as eluent (linear gradient from 10% to 95% acetonitrile)

Row | chromatographic logP | Compound
67 | 1.55 | N#Cc1cncn1CC(=O)c1ccccc1 [IX-101]
68 | 2.02 | N#Cc1cncn1CC(=O)c1cccc(Cl)c1F [IX-148]
69 | 2.82 | N#Cc1cncn1CC(=O)c1cnc(Oc2ccc(C(F)(F)F)nc2)cc1C(F)(F)F [IX-105]

Reference: patent publication US20200031778A1, “NOVEL 5-SUBSTITUTED IMIDAZOLYLMETHYL DERIVATIVES” (Bayer CropScience Aktiengesellschaft, priority 2016, published 2020)
